Reference: PubChem BioAssay AID1963867 (Molecular Pharmacology Branch, DTP, NCI, 2024)
pIC50: −log10 of the molar value.

Test system: KRAS-mutant PDC tumor spheroid with HUVEC/MSC, viability
Test: Anticancer human tumor 327498-153-R-J2-PDC patient-derived uterine carcinosarcoma cell line growth inhibition [KRAS2]
Settings: for pIC50: curve of first compound; for viability, T/C: stronger effect = lower value
Outline: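 KRAS-mutant tumor cells were grown as spheroids with HUVEC endothelial cells and human MSCs as stroma. Targeted agents were tested alone and with KRAS pathway inhibitors. Doses started at or near clinical Cmax, or 10 microM, descending half-log.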

[1] = second compound 0.1 µM, first compound 0.01 µM
[2] = second compound 0.1 µM, first compound 0.0316 µM
[3] = second compound 0.1 µM, first compound 0.1 µM
[4] = second compound 0.316 µM, first compound 0.01 µM
[5] = second compound 0.316 µM, first compound 0.0316 µM
[6] = second compound 0.316 µM, first compound 0.1 µM
[7] = second compound 1 µM, first compound 0.01 µM
[8] = second compound 1 µM, first compound 0.0316 µM
[9] = second compound 1 µM, first compound 0.1 µM
[10] = second compound 3.16 µM, first compound 0.01 µM
[11] = second compound 3.16 µM, first compound 0.0316 µM
[12] = second compound 3.16 µM, first compound 0.1 µM
[13] = second compound 10 µM, first compound 0.01 µM
[14] = second compound 10 µM, first compound 0.0316 µM
[15] = second compound 10 µM, first compound 0.1 µM
[16] = second compound 0.1 µM, first compound 0.316 µM
[17] = second compound 0.1 µM, first compound 1 µM
[18] = second compound 0.1 µM, first compound 3.16 µM
[19] = second compound 0.316 µM, first compound 0.316 µM
[20] = second compound 0.316 µM, first compound 1 µM
[21] = second compound 0.316 µM, first compound 3.16 µM
[22] = second compound 1 µM, first compound 0.316 µM
[23] = second compound 1 µM, first compound 1 µM
[24] = second compound 1 µM, first compound 3.16 µM
[25] = second compound 3.16 µM, first compound 0.316 µM
[26] = second compound 3.16 µM, first compound 1 µM
[27] = second compound 3.16 µM, first compound 3.16 µM
[28] = second compound 10 µM, first compound 0.316 µM
[29] = second compound 10 µM, first compound 1 µM
[30] = second compound 10 µM, first compound 3.16 µM
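Note: spheroids exposed to agents for seven days before reading.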
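Throughout, for viability, T/C: 100% = DMSO vehicle wells so lower means fewer viable cells.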

SMILES: CC(C)n1nc(-c2ccc3oc(N)nc3c2)c2c(N)ncnc21 + CC1OCC2(CCN(c3cnc(Sc4ccnc(N)c4Cl)c(N)n3)CC2)C1N
- pIC50 (second compound 0.1 µM): 8.66
- pIC50 (second compound 0.316 µM): 9.12
- pIC50 (second compound 1 µM): > 9.50
- pIC50 (second compound 3.16 µM): > 9.50
- pIC50 (second compound 10 µM): > 9.50
- viability, T/C (second compound 0.1 µM, first compound 0.000316 µM): 70.3%
- viability, T/C (second compound 0.1 µM, first compound 0.001 µM): 72.7%
- viability, T/C (second compound 0.1 µM, first compound 0.00316 µM): 38.3%
- viability, T/C [1]: 18.5%
- viability, T/C [2]: 8.54%
- viability, T/C [3]: 5.56%
- viability, T/C (second compound 0.316 µM, first compound 0.000316 µM): 61.8%
- viability, T/C (second compound 0.316 µM, first compound 0.001 µM): 46%
- viability, T/C (second compound 0.316 µM, first compound 0.00316 µM): 28.2%
- viability, T/C [4]: 14.3%
- viability, T/C [5]: 6.36%
- viability, T/C [6]: 4.27%
- viability, T/C (second compound 1 µM, first compound 0.000316 µM): 41.2%
- viability, T/C (second compound 1 µM, first compound 0.001 µM): 32.8%
- viability, T/C (second compound 1 µM, first compound 0.00316 µM): 20%
- viability, T/C [7]: 10.4%
- viability, T/C [8]: 6.01%
- viability, T/C [9]: 3.72%
- viability, T/C (second compound 3.16 µM, first compound 0.000316 µM): 31.4%
- viability, T/C (second compound 3.16 µM, first compound 0.001 µM): 22.6%
- viability, T/C (second compound 3.16 µM, first compound 0.00316 µM): 13.8%
- viability, T/C [10]: 8.15%
- viability, T/C [11]: 4.67%
- viability, T/C [12]: 3.18%
- viability, T/C (second compound 10 µM, first compound 0.000316 µM): 22.9%
- viability, T/C (second compound 10 µM, first compound 0.001 µM): 19.6%
- viability, T/C (second compound 10 µM, first compound 0.00316 µM): 11.7%
- viability, T/C [13]: 7.42%
- viability, T/C [14]: 4.21%
- viability, T/C [15]: 3.29%

SMILES: CC(C)NCC(C(=O)N1CCN(c2ncnc3c2C(C)CC3O)CC1)c1ccc(Cl)cc1 (stereo not given) + COc1cc2nc(C)nc(NC(C)c3cc(N)cc(C(F)(F)F)c3)c2cc1OC1CCOC1
- pIC50 (second compound 0.1 µM): 6.71
- pIC50 (second compound 0.316 µM): 6.99
- pIC50 (second compound 1 µM): 7.04
- pIC50 (second compound 3.16 µM): > 7.50
- pIC50 (second compound 10 µM): > 7.50
- viability, T/C [2]: 70.8%
- viability, T/C [3]: 57.7%
- viability, T/C [16]: 44%
- viability, T/C [17]: 26.3%
- viability, T/C [18]: 9.54%
- viability, T/C (second compound 0.1 µM, first compound 10 µM): 9.87%
- viability, T/C [5]: 62.5%
- viability, T/C [6]: 49.5%
- viability, T/C [19]: 34.4%
- viability, T/C [20]: 21.7%
- viability, T/C [21]: 8.09%
- viability, T/C (second compound 0.316 µM, first compound 10 µM): 9.57%
- viability, T/C [8]: 60%
- viability, T/C [9]: 51%
- viability, T/C [22]: 28.8%
- viability, T/C [23]: 17.7%
- viability, T/C [24]: 7.32%
- viability, T/C (second compound 1 µM, first compound 10 µM): 3.46%
- viability, T/C [11]: 54.4%
- viability, T/C [12]: 42.1%
- viability, T/C [25]: 43.6%
- viability, T/C [26]: 14.2%
- viability, T/C [27]: 8.44%
- viability, T/C (second compound 3.16 µM, first compound 10 µM): 8.27%
- viability, T/C [14]: 37.8%
- viability, T/C [15]: 27.3%
- viability, T/C [28]: 16.6%
- viability, T/C [29]: 5.51%
- viability, T/C [30]: 0.16%
- viability, T/C (second compound 10 µM, first compound 10 µM): 0.34%

SMILES: CC(=O)OC12COC1CC(O)C1(C)C(=O)C(O)C3=C(C)C(OC(=O)C(O)C(NC(=O)OC(C)(C)C)c4ccccc4)CC(O)(C(OC(=O)c4ccccc4)C21)C3(C)C (stereo not given) + CC1OCC2(CCN(c3cnc(Sc4ccnc(N)c4Cl)c(N)n3)CC2)C1N
- pIC50 (second compound 0.1 µM): > 8.00
- pIC50 (second compound 0.316 µM): > 8.00
- pIC50 (second compound 1 µM): > 8.00
- pIC50 (second compound 3.16 µM): > 8.00
- pIC50 (second compound 10 µM): > 8.00
- viability, T/C [1]: 7.15%
- viability, T/C [2]: 5.15%
- viability, T/C [3]: 5.38%
- viability, T/C [16]: 6.78%
- viability, T/C [17]: 9.97%
- viability, T/C [18]: 11.7%
- viability, T/C [4]: 7.22%
- viability, T/C [5]: 4.87%
- viability, T/C [6]: 5.16%
- viability, T/C [19]: 6.51%
- viability, T/C [20]: 8.59%
- viability, T/C [21]: 12.2%
- viability, T/C [7]: 8.68%
- viability, T/C [8]: 6.9%
- viability, T/C [9]: 11%
- viability, T/C [22]: 6.11%
- viability, T/C [23]: 8.45%
- viability, T/C [24]: 11.8%
- viability, T/C [10]: 6.83%
- viability, T/C [11]: 6.18%
- viability, T/C [12]: 5.94%
- viability, T/C [25]: 6.88%
- viability, T/C [26]: 9.05%
- viability, T/C [27]: 10.5%
- viability, T/C [13]: 12.6%
- viability, T/C [14]: 6.42%
- viability, T/C [15]: 9.06%
- viability, T/C [28]: 5.82%
- viability, T/C [29]: 10.8%
- viability, T/C [30]: 10.4%
